For orientation: Kd means the concentration at which binding is half-saturated.

Consider 45 compounds from patent US20230357233A1, “HETEROARYL COMPOUNDS, PREPARATION METHODS AND USES THEREOF” (INVENTISBIO CO., LTD., priority 2020, published 2023).

Assay [1] deals with Ba/F3_KRAS^G12D cells (Homo sapiens, UniProt P01116, G12D, cells depend on it). Description: Ba/F3 KRAS^G12D cell proliferation assay (cell-titer Glo). In kind it is cell-based. Conditions: cell growth inhibition, treated with the compounds for 3 days, read-out: BaF3_KRAS^G12D IC50.
Chain of Ba/F3_KRAS^G12D cells (P01116 whole entry G12D): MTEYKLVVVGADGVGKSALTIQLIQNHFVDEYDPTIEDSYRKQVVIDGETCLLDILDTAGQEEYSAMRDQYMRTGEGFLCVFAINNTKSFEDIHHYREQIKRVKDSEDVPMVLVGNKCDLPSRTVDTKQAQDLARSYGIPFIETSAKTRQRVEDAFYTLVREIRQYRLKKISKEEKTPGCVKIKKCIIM
Assay [2] concerns the target recombinant human KRAS^G12D protein (Homo sapiens, UniProt P01116, G12D). Description: Temperature-dependent Fluorescence (TdF) KRAS^G12D protein binding assay. As to conditions: 6 μM KRAS^G12D Protein, 10 μM compound, Sypro Orange; Kd calculated from fluorescent shift. As for the experimental part:
The TdF assay was conducted in the 96-well-based real-time fluorescence plate reader (ABI 7500 or Roche LightCycler 480). Fluorescent dye Sypro Orange (Sigma) was used to monitor the protein folding-unfolding transition. Protein-compound binding was gauged by the shift in the unfolding transition temperature (ΔTm) acquired with and without compound. […] The sample plate was heated from 30° C. to 95° C. with a thermal ramping rate of […], taking a fluorescence reading every 0.4° C. using a CY3 channel matching the excitation and emission wavelengths of Sypro Orange (λ ex 470 nm; λ em 570 nm). Binding affinity (Kd value) was calculated based on the degree of fluorescent shift of the protein with and without compound.

Chain of recombinant human KRAS^G12D protein (P01116 1-188 isoform P01116-2 G12D): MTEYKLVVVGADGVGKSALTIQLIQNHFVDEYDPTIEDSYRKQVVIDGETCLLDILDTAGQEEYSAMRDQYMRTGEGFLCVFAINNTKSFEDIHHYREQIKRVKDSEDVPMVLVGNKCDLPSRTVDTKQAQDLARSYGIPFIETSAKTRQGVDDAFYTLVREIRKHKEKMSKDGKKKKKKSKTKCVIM

Take `CN1CCC[C@@H]1COc1nc(-c2cccc3ccccc23)c(F)c2nc(N3CCNCC3)ccc12` [Compound 54]: the GI50 in assay [1] lay within 0.5 to 5 µM. Moreover, in assay [2], the dissociation constant Kd was more than 5 µM.

Take `CCc1cccc2cc(O)cc(-c3nc(C)c4c(N5CC6CCC(C5)N6)nc(OC[C@@]56CCCN5C[C@H](F)C6)nc4c3C3CC3)c12` [Compound 122]: the GI50 in assay [1] was in the range of 0.5 to 5 µM. Further, the dissociation constant Kd in assay [2] was more than 5 µM.

On to `Fc1ccccc1-c1nc2c(-c3cccnc3C3CC3)c(OCC34CCCN3CCC4)nc(N3CC4CCC(C3)N4)c2cc1F` [Compound 28], for which the GI50 in assay [1] fell in the range of 0.5 to 5 µM. The Kd in assay [2] was more than 5 µM.

`O=C(C(O)O)N1CCN(c2nc(OC[C@@]34CCCN3C[C@H](F)C4)nc3c(F)c(-c4cc(O)cc5cccc(Cl)c45)ncc23)CC1` [Compound 79]: the GI50 in assay [1] is more than 5 µM. Also, the equilibrium dissociation constant (Kd) in assay [2] is more than 5 µM.

For `COc1nc2c(N3CC4CCC(C3)N4)nc(OC[C@@H]3CCCN3C)nc2cc1-c1cc(O)cc2ccccc12` [Compound 91], the GI50 in assay [1] is 0.5 to 5 µM. Further, in assay [2], the Kd is 0.5 to 5 µM.

In the case of `CCc1cccc2cc(O)cc(-c3nc(C(F)F)c4c(N5CC6CCC(C5)N6)nc(OC[C@@]56CCCN5C[C@H](F)C6)nc4c3F)c12` [Compound 136], the GI50 in assay [1] is less than 0.5 µM. In addition, the dissociation constant Kd in assay [2] was not above 0.5 µM.

For `CCc1cccc2cc(O)cc(-c3nc(OC)c4c(N5CC6CCC(C5)N6)nc(OC[C@@]56CCCN5C[C@H](F)C6)nc4c3F)c12` [Compound 125], the GI50 in assay [1] was less than 0.5 µM. Also, the Kd in assay [2] is not above 0.5 µM.

For the compound `O=c1c2nc(OCC34CCCN3CCC4)nc(N3CC4CCC(C3)N4)c2ccn1-c1cccc2ccccc12` [Compound 108], the GI50 in assay [1] was more than 5 µM. Moreover, the equilibrium dissociation constant (Kd) in assay [2] was more than 5 µM.

Turning to `Oc1cc(-c2ncc3c(C4CC5CCC(C4)N5)nc(OC[C@@]45CCCN4C[C@H](F)C5)nc3c2F)c2c(Cl)cccc2c1` (stereo partly drawn) [Compound 100], the GI50 in assay [1] was more than 5 µM. In assay [2], the Kd is more than 5 µM.

For `Oc1cc(-c2ncc3c(N4CC5CCC(C4)N5)cc(OCC45CCCN4CCC5)nc3c2F)c2c(Cl)cccc2c1` [Compound 71], the GI50 in assay [1] was more than 5 µM. Further, the Kd in assay [2] was 0.5 to 5 µM.

As for `Cc1cc(N)nc(-c2nc(C)c3c(N4CC5CCC(C4)N5)nc(OC[C@@]45CCCN4C[C@H](F)C5)nc3c2F)c1C(F)(F)F` [Compound 105], in assay [1], the GI50 is more than 5 µM. In assay [2], the Kd was 0.5 to 5 µM.

Regarding `Oc1cc(-c2ncc3c(N4CC5CCC(C4)N5)nc(OC[C@@]45CCCN4C[C@H](F)C5)nc3c2F)c2c(Cl)cccc2c1` [Compound 36], the GI50 in assay [1] was less than 0.5 µM. Also, the Kd in assay [2] was not above 0.5 µM.

For the compound `Fc1c(-c2cccc3cccc(Cl)c23)nc(OCC23CCCN2CCC3)c2ccc(N3CCNCC3)nc12` [Compound 31], in assay [1], the GI50 is 0.5 to 5 µM. Further, the Kd in assay [2] is more than 5 µM.

Take `c1ccc2c(-c3ncc4c(N5CC6CCC(C5)N6)nc(OCC56CCCN5CCC6)cc4n3)cccc2c1` [Compound 21]: the GI50 in assay [1] lay within 0.5 to 5 µM. In assay [2], the Kd is more than 5 µM.

Take `CN(C)CCCOc1nc(N2CC3CCC(C2)N3)c2cc(F)c(-c3cccc4cccc(Cl)c34)nc2n1` [Compound 15]: in assay [1], the GI50 was more than 5 µM. Besides, the Kd in assay [2] is more than 5 µM.

Regarding `CN1CCC[C@H]1COc1nc(N2CC3CCC(C2)N3)c2[nH]c(=O)c(-c3cc(O)cc4ccccc34)cc2n1` [Compound 92], the GI50 in assay [1] was more than 5 µM. The Kd in assay [2] is 0.5 to 5 µM.

Regarding `C[C@H]1CNCCN1c1nc(OCCN(C)C)c(-c2cccnc2C2CC2)c2nc(-c3ccccc3F)c(F)cc12` [Compound 1], in assay [1], the GI50 was 0.5 to 5 µM. For the same compound, in assay [2], the Kd was more than 5 µM.

Take `CCc1cccc2cc(O)cc(-c3cc4c(cn3)c(N3CC5CCC(C3)N5)nc(=O)n4C[C@@H]3CCCN3C)c12` [Compound 88]: the GI50 in assay [1] is more than 5 µM. The Kd in assay [2] is more than 5 µM.

`Oc1cc(-c2nc(Cl)c3c(N4CC5CCC(C4)N5)nc(OC[C@@]45CCCN4C[C@H](F)C5)nc3c2F)c2c(Cl)cccc2c1` [Compound 114]: the GI50 in assay [1] is less than 0.5 µM. For the same compound, the Kd in assay [2] is not above 0.5 µM.

Regarding `C#Cc1cccc2cc(O)cc(-c3nc(C)c4c(N5CC6CCC(C5)N6)nc(OC[C@@]56CCCN5C[C@H](F)C6)nc4c3F)c12` [Compound 103], in assay [1], the GI50 was less than 0.5 µM. Moreover, in assay [2], the Kd is not above 0.5 µM.

For `CN1CCC[C@H]1Cn1c(=O)nc(N2C[C@H]3CC[C@@H](C2)N3)c2cc(F)c(-c3cccc4cccc(Cl)c34)nc21` [Compound 45], the GI50 in assay [1] was more than 5 µM. Also, in assay [2], the Kd was more than 5 µM.

`Fc1ccccc1-c1nc2cc(OCC34CCCN3CCC4)nc(N3CC4CCC(C3)N4)c2cc1F` [Compound 16]: the GI50 in assay [1] lay in the range of 0.5 to 5 µM. The Kd in assay [2] is more than 5 µM.

Regarding `Oc1cc(-c2nc(Cl)c3c(N4CC5CCC(C4)N5)nc(OC[C@@]45CCCN4C[C@H](F)C5)nc3c2Cl)c2c(Cl)cccc2c1` [Compound 120], the GI50 in assay [1] is less than 0.5 µM. The Kd in assay [2] was not above 0.5 µM.

As for `Oc1cc(-c2nc3nc(OCC45CCCN4CCC5)nc(N4CC5CCC(C4)N5)c3cc2Cl)c2ccccc2c1` [Compound 10], in assay [1], the GI50 is more than 5 µM. Moreover, the Kd in assay [2] was more than 5 µM.

Regarding `CN(C)CCCn1c(=O)nc(N2CC3CCC(C2)N3)c2cnc(-c3cccc4cccc(Cl)c34)c(F)c21` [Compound 17], the GI50 in assay [1] is more than 5 µM. Further, the Kd in assay [2] was more than 5 µM.

With `Oc1cc(-c2nc3cc(OCC45CCCN4CCC5)nc(N4CC5CCC(C4)N5)c3cc2Cl)c2c(Cl)cccc2c1` [Compound 34], the GI50 in assay [1] is more than 5 µM. Further, the Kd in assay [2] was more than 5 µM.

As to `Oc1cc(-c2ncc3c(N4CC5CCC(C4)N5)nc(OC[C@@]45CCCN4C[C@H](F)C5)c(Cl)c3n2)c2c(Cl)c(F)ccc2c1` [Compound 75], in assay [1], the GI50 was more than 5 µM. Moreover, in assay [2], the Kd is not above 0.5 µM.

Regarding `C#Cc1c(F)ccc2cc(O)cc(-c3nc(OC)c4c(N5CC6CCC(C5)N6)nc(OC[C@]56CCCN5[C@@H](COC(=O)N(C)C)CC6)nc4c3F)c12` [Compound 176], the GI50 in assay [1] was less than 0.5 µM. Moreover, the Kd in assay [2] is not above 0.5 µM.

On to `COc1c(F)ccc2cc(O)cc(-c3nc(OC)c4c(N5CC6CCC(C5)N6)nc(OC[C@@]56CCCN5C[C@H](F)C6)nc4c3F)c12` [Compound 147], for which the GI50 in assay [1] is less than 0.5 µM. In addition, in assay [2], the Kd was not above 0.5 µM.

With `Clc1cccc2cccc(-c3ncc4c(N5C6CCC5CNC6)nc(OCC56CCCN5CCC6)cc4n3)c12` [Compound 52], the GI50 in assay [1] lay in the range of 0.5 to 5 µM. The Kd in assay [2] is more than 5 µM.

Turning to `CN1CCC[C@H]1Cn1c(=O)nc(N2CC3CCC(C2)N3)c2cnc(-c3cc(O)cc4cccc(Cl)c34)c(F)c21` [Compound 44], the GI50 in assay [1] was more than 5 µM. In addition, the Kd in assay [2] is more than 5 µM.

On to `CCc1cccc2cc(O)cc(-c3nc(Cl)c4c(N5CC6CCC(C5)N6)nc(OC[C@@]56CCCN5C[C@H](F)C6)nc4c3F)c12` [Compound 113], for which the GI50 in assay [1] was less than 0.5 µM. In addition, the Kd in assay [2] was not above 0.5 µM.

For the compound `CCOc1c(F)ccc2cc(O)cc(-c3nc(OC)c4c(N5CC6CCC(C5)N6)nc(OC[C@@]56CCCN5C[C@H](F)C6)nc4c3F)c12` [Compound 148], in assay [1], the GI50 was less than 0.5 µM. The Kd in assay [2] was not above 0.5 µM.

Consider `Cc1cc2c(N3CC4CCC(C3)N4)nc(OCC34CCCN3CCC4)nc2c(=O)n1-c1cccc2ccccc12` [Compound 107], for which the GI50 in assay [1] lay within 0.5 to 5 µM. Besides, the equilibrium dissociation constant (Kd) in assay [2] was more than 5 µM.

With `CC(=O)N1CCN(c2nc(OC[C@@]34CCCN3C[C@H](F)C4)nc3c(F)c(-c4cc(O)cc5cccc(Cl)c45)ncc23)CC1` [Compound 74], in assay [1], the GI50 is more than 5 µM. Besides, the Kd in assay [2] was not above 0.5 µM.

For the compound `Oc1cc(-c2ncc3c(N4CC5CCC(C4)N5)nc(OC[C@@]45CCCN4C[C@H](F)C5)nc3c2F)c2c(Cl)cccc2c1` [Compound 112], the GI50 in assay [1] was less than 0.5 µM. Also, the Kd in assay [2] was not above 0.5 µM.

In the case of `C#Cc1c(F)ccc2cc(O)cc(-c3nc(OC(C)C)c4c(N5CC6CCC(C5)N6)nc(OC[C@@H]5CCCN5C)nc4c3F)c12` [Compound 195], in assay [1], the GI50 is less than 0.5 µM. Moreover, the Kd in assay [2] was not above 0.5 µM.

With `Oc1cc(-c2ncc3c(C4CCNCC4)nc(OCC45CCCN4CCC5)nc3c2F)c2c(Cl)cccc2c1` [Compound 55], the GI50 in assay [1] is more than 5 µM. For the same compound, the Kd in assay [2] was more than 5 µM.

For the compound `Nc1cccc(F)c1-c1ncc2c(N3CC4CCC(C3)N4)nc(OCC34CCCN3CCC4)cc2n1` [Compound 26], the GI50 in assay [1] was more than 5 µM. In addition, the Kd in assay [2] was more than 5 µM.

Turning to `C#Cc1c(F)ccc2cc(N)cc(-c3nc(OC)c4c(N5CC6CCC(C5)N6)nc(OC[C@@]56CCCN5C[C@H](F)C6)nc4c3F)c12` [Compound 163], in assay [1], the GI50 was less than 0.5 µM. For the same compound, the Kd in assay [2] is not above 0.5 µM.

As to `CN(C)CCCn1c(=O)nc(N2CC3CCC(C2)N3)c2cc(F)c(-c3cccc4cccc(Cl)c34)nc21` [Compound 19], the GI50 in assay [1] was more than 5 µM. Moreover, the Kd in assay [2] is more than 5 µM.

Consider `Fc1cc2c(N3C4CCC3CNC4)nc(OCC34CCCN3CCC4)nc2nc1-c1cccc2cccc(Cl)c12` [Compound 9], for which, in assay [1], the GI50 is more than 5 µM. Further, the equilibrium dissociation constant (Kd) in assay [2] is more than 5 µM.

Regarding `C#Cc1c(F)ccc2cc(O)cc(-c3nc(C)c4c(N5CC6CCC(C5)N6)nc(OC[C@@]56CCCN5C[C@H](F)C6)nc4c3Cl)c12` [Compound 134], the GI50 in assay [1] is less than 0.5 µM. The Kd in assay [2] is not above 0.5 µM.

With `CN1CCC[C@H]1Cn1c(=O)nc(N2CC3CCC(C2)N3)c2cnc(-c3cccc4cccc(Cl)c34)c(F)c21` [Compound 33], the GI50 in assay [1] was more than 5 µM. In addition, the dissociation constant (Kd) in assay [2] was more than 5 µM.

Regarding `CCc1c(F)ccc2cc(O)cc(-c3nc(OC)c4c(N5CC6CCC(C5)N6)nc(OC[C@@]56CCCN5C[C@H](F)C6)nc4c3F)c12` [Compound 139], the GI50 in assay [1] was less than 0.5 µM. The Kd in assay [2] was not above 0.5 µM.
